Measurements: US20210338548A1, “Mint Flavor Compositions” (The Procter & Gamble Company, priority 2020, published 2021)

How the values were obtained:
[1] = Expert sensory testing of racemic menthol vs (−)-menthol in toothpaste (CREST Cavity) with standard spearmint flavor; format: in vivo
Protocol: In separate, unpublished internal experiments, perceptual experiences of racemic menthol are quantified via expert sensory testing. The use of a standard spearmint flavor (minimizing extra menthol contribution) compared racemic menthol to (−)-menthol in a toothpaste formulation (CREST Cavity). There are several sensory observations taken from these experiments. […] These aromatic notes appear during brushing and disappear after 5-10 minutes post expectoration and are more pronounced as concentrations increase.

[2] = Comparison of cooling attributes of (−)-menthol and racemic menthol in toothpaste (CREST Cavity formulation); format: in vivo
Description: The following data helps support the use of racemic menthol to reduce costs of mint flavor compositions herein described. From internal unpublished research, Table B compares replacing (−)-menthol with a racemic menthol in a 1:1 in a toothpaste formulation. Such a direct replacement is not preferred given the reduced cooling profile and olfactory differences; however, a portion of L-menthol is preferably replaced by racemic-menthol to gain cost efficiency while minimizing impact to the overall mint flavor profiles.
Table B is a comparison of attributes between (−)-menthol and racemic menthol in a toothpaste context (using CREST Cavity formulation).
This value represents the concentration of a coolant where 50% of its maximal cooling is observed.

In the case of `CC1CCC(C(C)C)C(O)C1` (racemic) [Racemic Menthol], the “less potent than (−)-menthol for cooling” value [1] is reported as 25-30%, the “Maximum Longevity” value [2] is reported as “Up to 20 minutes” and the “Potency compared to L-Menthol” value [2] is reported as ~0.65-0.7x. For the same compound, the “Time Point at Maximum Cooling” value [2] was ~1 min, the “Maximum Cooling (0-60 scale)” value ([2]; 60 = greatest amount of cooling, 0 = least) was 35 and the “EC 50” value ([2]; concentration of coolant giving 50% of its maximal cooling) was 1,250 to 1,500 parts per million.
